From BindingDB's records for doi:10.7270/Q2DF6PMF (Nmmlsc, 2007)
pIC50, pKi: −log10 of the molar value.

Molecular target: T1, N-formyl peptide receptor 2 (Homo sapiens, UniProt P25090)
T1 sequence (P25090 whole entry): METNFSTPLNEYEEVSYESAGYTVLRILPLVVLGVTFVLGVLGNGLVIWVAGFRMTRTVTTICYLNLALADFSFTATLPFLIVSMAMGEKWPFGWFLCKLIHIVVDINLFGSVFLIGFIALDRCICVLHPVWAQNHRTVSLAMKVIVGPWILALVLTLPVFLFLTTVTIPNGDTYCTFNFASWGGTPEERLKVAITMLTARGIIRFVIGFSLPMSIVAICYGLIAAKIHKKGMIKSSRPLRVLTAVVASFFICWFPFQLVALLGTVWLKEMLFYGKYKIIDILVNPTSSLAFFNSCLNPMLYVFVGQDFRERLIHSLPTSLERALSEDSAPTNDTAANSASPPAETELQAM
Assay: FPRL1 binding inhibitor potency, dose response, cell-based, FPR counter-screen, fluorescent ligand (AID 520)

Row | Compound | pIC50 | pKi | pIC50 (inactive by the depositor's call)
1 | COCCCN1C(=O)C(=O)C(C(=O)c2ccco2)C1c1cccc(Br)c1 (centres undefined) [2-(3-bromophenyl)-3-(furan-2-carbonyl)-4-hydroxy-1-(3-methoxypropyl)-2H-pyrrol-5-one] | < 4.18 | < 4.39 | 
2 | COc1cc(C2C(C(=O)c3ccc(C)o3)C(=O)C(=O)N2Cc2cccnc2)ccc1O (centres undefined) [2-(3-methoxy-4-oxidanyl-phenyl)-3-(5-methylfuran-2-yl)carbonyl-4-oxidanyl-1-(pyridin-3-ylmethyl)-2H-pyrrol-5-one] | < 4.18 | < 4.39 | 
3 | COCCCN1C(=O)C(=O)C(C(=O)c2ccco2)C1c1ccc(Br)cc1 (centres undefined) [2-(4-bromophenyl)-3-(furan-2-carbonyl)-4-hydroxy-1-(3-methoxypropyl)-2H-pyrrol-5-one] | < 4.18 | < 4.39 | 
4 | Cc1nc(C)c(C(=O)C2C(=O)C(=O)N(CCCn3ccnc3)C2c2ccc(Cl)cc2)s1 (centres undefined) [2-(4-chlorophenyl)-3-(2,4-dimethyl-1,3-thiazole-5-carbonyl)-4-hydroxy-1-(3-imidazol-1-ylpropyl)-2H-pyrrol-5-one] | < 4.18 | < 4.39 | 
5 | O=C1C(=O)N(c2ncccn2)C(c2ccc(Cl)cc2)C1C(=O)c1ccco1 (centres undefined) [2-(4-chlorophenyl)-3-(furan-2-carbonyl)-4-hydroxy-1-pyrimidin-2-yl-2H-pyrrol-5-one] | < 4.18 | < 4.39 | 
6 | CCOc1ccc(C2C(C(=O)c3cccs3)C(=O)C(=O)N2CCCn2ccnc2)cc1 (centres undefined) [2-(4-ethoxyphenyl)-1-(3-imidazol-1-ylpropyl)-4-oxidanyl-3-thiophen-2-ylcarbonyl-2H-pyrrol-5-one] | < 4.18 | < 4.39 | 
7 | CCOc1ccc(C2C(C(=O)c3ccco3)C(=O)C(=O)N2CCCn2ccnc2)cc1 (centres undefined) [2-(4-ethoxyphenyl)-3-(furan-2-carbonyl)-4-hydroxy-1-(3-imidazol-1-ylpropyl)-2H-pyrrol-5-one] | < 4.18 | < 4.39 | 
8 | CCOc1ccc(C2C(C(=O)c3ccco3)C(=O)C(=O)N2Cc2cccnc2)cc1 (centres undefined) [2-(4-ethoxyphenyl)-3-(furan-2-carbonyl)-4-hydroxy-1-(pyridin-3-ylmethyl)-2H-pyrrol-5-one] | < 4.18 | < 4.39 | 
9 | COc1ccc(CC(=O)Nc2ccc(-c3nnc(-c4ccc(C)cc4)o3)cc2)cc1 [2-(4-methoxyphenyl)-N-[4-[5-(4-methylphenyl)-1,3,4-oxadiazol-2-yl]phenyl]acetamide] | < 4.18 |  | 
10 | O=C(O)CC1Oc2ccc(Cl)cc2NC1=O (centres undefined) [2-(6-chloranyl-3-oxidanylidene-4H-1,4-benzoxazin-2-yl)ethanoic acid] | < 4.18 |  | 
11 | CC(C)CN(CC(C)C)C(=O)CS(=O)(=O)Cc1ccccc1 [2-(benzylsulfonyl)-N,N-diisobutylacetamide] | < 4.18 |  | 
12 | COC(=O)Cc1n[nH]c2c1C(C1C=CCCC1)C(C#N)C(=N)O2 (centres undefined) [2-[6-amino-5-cyano-4-(1-cyclohex-2-enyl)-2,4-dihydropyrano[2,3-c]pyrazol-3-yl]acetic acid methyl ester] | < 4.18 | < 4.39 | 
13 | O=C(O)C1CCCCC1C(=O)Nc1ccccc1Cl (centres undefined) [2-[(2-chloroanilino)-oxomethyl]-1-cyclohexanecarboxylic acid] | < 4.18 |  | 
14 | Cc1ccc(F)c(NC(=O)C2CCCCC2C(=O)O)c1 (centres undefined) [2-[(2-fluoranyl-5-methyl-phenyl)carbamoyl]cyclohexane-1-carboxylic acid] | < 4.18 |  | 
15 | COc1ccc(C)cc1NC(=O)C1CCCCC1C(=O)O (centres undefined) [2-[(2-methoxy-5-methyl-phenyl)carbamoyl]cyclohexane-1-carboxylic acid] | < 4.18 |  | 

Next, values leading:

Row | pIC50 | pKi | pIC50 (inactive by the depositor's call) | Compound
16 | < 4.18 | < 4.39 |  | O=C1C(=O)N(c2ncccn2)C(c2cccc(Cl)c2)C1C(=O)c1ccco1 (centres undefined) [2-(3-chlorophenyl)-3-(furan-2-carbonyl)-4-hydroxy-1-pyrimidin-2-yl-2H-pyrrol-5-one]
17 |  |  | 4.74 | CNc1nn(-c2cccc(Cl)c2)nc1N [2-(3-chlorophenyl)-4-N-methyltriazole-4,5-diamine]
18 | < 4.18 | < 4.39 |  | CCOc1cc(C2C(C(=O)c3ccco3)C(=O)C(=O)N2CCc2ccccc2)ccc1O (centres undefined) [2-(3-ethoxy-4-hydroxyphenyl)-3-(furan-2-carbonyl)-4-hydroxy-1-(2-phenylethyl)-2H-pyrrol-5-one]
19 | < 4.18 | < 4.39 |  | CCOc1cc(C2C(C(=O)c3ccc(C)o3)C(=O)C(=O)N2CCc2ccccc2)ccc1O (centres undefined) [2-(3-ethoxy-4-hydroxyphenyl)-4-hydroxy-3-(5-methylfuran-2-carbonyl)-1-(2-phenylethyl)-2H-pyrrol-5-one]
20 | < 4.18 | < 4.39 |  | COc1cc(C2C(C(=O)c3ccc(C)o3)C(=O)C(=O)N2CCc2ccccc2)ccc1O (centres undefined) [2-(3-methoxy-4-oxidanyl-phenyl)-3-(5-methylfuran-2-yl)carbonyl-4-oxidanyl-1-(2-phenylethyl)-2H-pyrrol-5-one]
21 | 4.92 |  |  | COc1ccc(-c2cc(C(F)(F)F)nc(N3CCN(Cc4ccccc4)CC3)n2)cc1OC [2-(4-benzylpiperazin-1-yl)-4-(3,4-dimethoxyphenyl)-6-(trifluoromethyl)pyrimidine]
22 | < 4.18 |  |  | COC(=O)COc1ccc2c(=O)c(Oc3ccccc3)c(C)oc2c1 [2-(4-keto-2-methyl-3-phenoxy-chromen-7-yl)oxyacetic acid methyl ester]
23 | < 4.18 |  |  | COc1ccc2c(=O)c(N3C(=O)c4ccccc4C3=O)c(C)oc2c1 [2-(4-keto-7-methoxy-2-methyl-chromen-3-yl)isoindoline-1,3-quinone]
24 | < 4.18 |  |  | Cc1cc(SCC(N)=O)nc(SCC(=O)c2ccccc2)n1 [2-(6-methyl-2-phenacylsulfanylpyrimidin-4-yl)sulfanylacetamide]
25 | < 4.18 |  |  | Cc1sc(NC(=O)C2CCCCC2C(=O)O)c(C(N)=O)c1-c1ccc(C(C)(C)C)cc1 (centres undefined) [2-({[3-(aminocarbonyl)-4-(4-tert-butylphenyl)-5-methyl-2-thienyl]amino}carbonyl)cyclohexanecarboxylic acid]
26 | < 4.18 |  |  | CCc1ccccc1NC(=O)C(C#N)Cc1cccnc1 (centres undefined) [2-Cyano-N-(2-ethyl-phenyl)-2-pyridin-3-ylmethyl-acetamide]
27 | < 4.18 |  |  | Cc1nn(-c2nc3ccccc3s2)c(C)c1Oc1ccccc1O [2-[1-(1,3-benzothiazol-2-yl)-3,5-dimethyl-pyrazol-4-yl]oxyphenol]
28 | < 4.18 |  |  | CC1CCN(S(=O)(=O)c2ccc3c(c2)oc(=O)n3CC(=O)NCc2ccc3c(c2)OCO3)CC1 [2-[2-keto-6-(4-methylpiperidino)sulfonyl-1,3-benzoxazol-3-yl]-N-piperonyl-acetamide]
29 | < 4.18 |  |  | CCc1nnc(NC(=O)CSc2nnc(-c3cc4ccccc4cc3O)n2CC)s1 [2-[4-Ethyl-5-(3-hydroxy-naphthalen-2-yl)-4H-[1,2,4]triazol-3-ylsulfanyl]-N-(5-ethyl-[1,3,4]thiadiazol-2-yl)-acetamide]
30 | < 4.18 |  |  | CCc1nn2c(=O)cc(CSc3nc4sc5c(c4c(=O)n3C)CCCC5)nc2s1 [2-[(2-ethyl-5-keto-[1,3,4]thiadiazolo[3,2-a]pyrimidin-7-yl)methylthio]-3-methyl-5,6,7,8-tetrahydrobenzothiopheno[2,3-d]pyrimidin-4-one]
31 | < 4.18 |  |  | N#Cc1c(C(F)(F)F)cc(-c2ccccc2)nc1SCc1nc(N)nc(N2CCOCC2)n1 [2-[(4-amino-6-morpholin-4-yl-1,3,5-triazin-2-yl)methylsulfanyl]-6-phenyl-4-(trifluoromethyl)pyridine-3-carbonitrile]
